# Tests used:
# [1] = in vivo
# Description: All animals were weighed with a digital platform scale (DUE600ST/M3s-A, Mettler Toledo Ltd.) on the day of operation, 5 days post-operation, and the day of autopsy.
# Food consumption was checked every day. Any remaining amount of food was weighed with a digital platform scale (DUE600ST/ID3s-A, Mettler Toledo Ltd.) when present. If there was no uneaten diet, food consumption was recorded as 500 g.
# [2] = design: species or system miniature swine (Gottingen); settings: in vivo
# Description: Blood for hematological examination was collected by catheter on the day of operation, 3 days after operation, and 7 days after operation, and the day of necropsy. Blood was collected into EDTA-2K coated blood collection tubes (VP-DK052K05, TERUMO Ltd.). Red blood cell count (RBC), white blood cell count (WBC), hemoglobin concentration (HGB), hematocrit (HCT), and platelet count (PLT) were measured using a multi-channel blood cell counter (Sysmex K-4500, Sysmex
# [3] = Blood biochemical examination; type: in vivo, miniature swine (Gottingen)
# Description: Blood for biochemical examination was centrifuged at 3,000 rpm at 4° C. for 15 min to obtain serum samples used to measure AST, ALT, ALP, total protein (TP), albumin (Alb), protein fraction (alb), alpha 1 globulin (α1-glb), alpha 2 globulin (α-glb), beta globulin (β-glb), gamma globulin (γ-glb), albumin/globulin ratio (A/G), total bilirubin (T-Bil), urea nitrogen (UN), creatinine (CRE), glucose (Glu), total cholesterol (T-Cho), triglycerides (TG), sodium, potassium, chloride, calcium, inorganic phosphate (IP), and C-reactive protein (CRP).
structure (smiles),measurement,setting,value
"CC(=O)N[C@@H](CCCNC(=N)N)C(=O)N[C@@H](C)C(=O)N[C@@H](CC(=O)O)C(=O)N[C@@H](C)C(=O)N[C@@H](CCCNC(=N)N)C(=O)N[C@@H](C)C(=O)N[C@@H](CC(=O)O)C(=O)N[C@@H](C)C(=O)N[C@@H](CCCNC(=N)N)C(=O)N[C@@H](C)C(=O)N[C@@H](CC(=O)O)C(=O)N[C@@H](C)C(=O)N[C@@H](CCCNC(=N)N)C(=O)N[C@@H](C)C(=O)N[C@@H](CC(=O)O)C(=O)N[C@@H](C)C(N)=O [RADA16, Ac-(RADA)4-CONH2]",body weight and food intake,[1],generally maintained
same,general condition,[1],good general condition
same,WBC change,[2],elevated level of WBC
same,CRE,"[3]; AD3: 3 days after treatment, per animal and Mean (n=3)",1.12 mg/dL
same,CRP change,[3]; in vivo,elevated level of CRP
